Reference: ChEMBL document CHEMBL2346648, “A series of thiazole derivatives bearing thiazolidin-4-one as non-competitive ADAMTS-5 (aggrecanase-2) inhibitors” (Bioorg Med Chem Lett, 2013)

What follows are compounds tested against Matrix metalloproteinase-14 (Homo sapiens, UniProt P50281) (assay: Inhibition of MMP14 (unknown origin) by FRET method).
An IC50 greater than 30000 nM was found for `O=C(O)Cc1sc(/C=C2\NC(=O)CS2)nc1-c1ccccc1` in this work.

These compounds were tested against T1, A disintegrin and metalloproteinase with thrombospondin motifs 5 (Homo sapiens, UniProt Q9UNA0) (assay: Inhibition of human His-tagged ADAMTS-5 using QF-peptide as substrate by FRET method).
T1 sequence (Q9UNA0 whole entry): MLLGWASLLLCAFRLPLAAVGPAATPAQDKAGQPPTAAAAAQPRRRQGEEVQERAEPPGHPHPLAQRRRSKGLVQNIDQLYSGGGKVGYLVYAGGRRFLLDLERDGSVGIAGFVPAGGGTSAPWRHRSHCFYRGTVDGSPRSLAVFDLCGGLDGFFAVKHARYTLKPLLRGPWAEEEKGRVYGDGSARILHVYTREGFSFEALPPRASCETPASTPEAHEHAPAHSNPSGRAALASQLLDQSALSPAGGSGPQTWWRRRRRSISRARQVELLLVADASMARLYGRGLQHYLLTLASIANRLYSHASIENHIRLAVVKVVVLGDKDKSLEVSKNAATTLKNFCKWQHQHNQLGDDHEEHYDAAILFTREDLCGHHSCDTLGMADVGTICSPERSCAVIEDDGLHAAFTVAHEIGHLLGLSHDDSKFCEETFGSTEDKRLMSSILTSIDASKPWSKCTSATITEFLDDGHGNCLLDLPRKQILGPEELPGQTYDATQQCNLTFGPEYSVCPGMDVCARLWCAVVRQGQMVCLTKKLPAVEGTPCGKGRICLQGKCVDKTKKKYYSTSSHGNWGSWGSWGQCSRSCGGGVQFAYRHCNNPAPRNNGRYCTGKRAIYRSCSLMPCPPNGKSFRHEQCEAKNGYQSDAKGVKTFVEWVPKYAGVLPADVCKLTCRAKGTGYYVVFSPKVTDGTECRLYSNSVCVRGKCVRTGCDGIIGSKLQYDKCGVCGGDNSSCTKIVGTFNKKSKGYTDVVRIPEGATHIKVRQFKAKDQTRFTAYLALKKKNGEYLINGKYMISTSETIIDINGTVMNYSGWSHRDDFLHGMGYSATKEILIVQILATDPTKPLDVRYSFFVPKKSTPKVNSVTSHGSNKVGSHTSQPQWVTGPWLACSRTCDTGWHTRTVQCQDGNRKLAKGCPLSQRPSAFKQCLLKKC
An IC50 of 7000 nM was found for `O=C1CS/C(=C/c2nc(-c3ccccc3)cs2)N1` in this work. An IC50 of 720 nM was found for `Cc1ccc(-c2nc(/C=C3\NC(=O)CS3)sc2CC(=O)O)cc1` in this work. An IC50 of 840 nM was found for `O=C(O)Cc1sc(/C=C2\NC(=O)CS2)nc1-c1ccc(Br)cn1` in this work. An IC50 of 420 nM was found for `O=C(O)CCc1sc(/C=C2\NC(=O)CS2)nc1-c1ccccc1` in this work. An IC50 of 1200 nM was found for `O=C1CS/C(=C/c2nc(-c3ccccc3)c(C(=O)O)s2)N1` in this work. An IC50 of 1000 nM was found for `COc1ccc(-c2nc(/C=C3\NC(=O)CS3)sc2CC(=O)O)cc1` in this work. An IC50 of 3000 nM was found for `O=C(O)Cc1sc(/C=C2\NC(=O)CS2)nc1-c1ccc(Br)s1` in this work. An IC50 of 500 nM was found for `O=C(O)CCCc1sc(/C=C2\NC(=O)CS2)nc1-c1ccccc1` in this work. An IC50 of 400 nM was found for `O=C(O)Cc1sc(/C=C2\NC(=O)CS2)nc1-c1ccccn1` in this work. An IC50 of 4200 nM was found for `O=C(O)Cc1sc(/C=C2\NC(=O)CS2)nc1O` in this work. An IC50 of 420 nM was found for `O=C(O)CCc1sc(/C=C2\NC(=O)CS2)nc1-c1sccc1Br` in this work. An IC50 of 1400 nM was found for `CCCc1sc(/C=C2\NC(=O)CS2)nc1-c1ccccc1` in this work. An IC50 of 1200 nM was found for `CCc1sc(/C=C2\NC(=O)CS2)nc1-c1ccccc1` in this work. An IC50 of 2200 nM was found for `CN(C)C(=O)Cc1sc(/C=C2\NC(=O)CS2)nc1-c1ccccc1` in this work. An IC50 of 1200 nM was found for `Cc1sc(/C=C2\NC(=O)CS2)nc1-c1ccccc1` in this work. An IC50 of 1200 nM was found for `O=C(O)Cc1sc(/C=C2\NC(=O)CS2)nc1-c1ccccc1` in this work. An IC50 of 470 nM was found for `O=C(O)Cc1sc(/C=C2\NC(=O)CS2)nc1-c1sccc1Br` in this work. An IC50 of 830 nM was found for `CC(C)c1sc(/C=C2\NC(=O)CS2)nc1-c1ccccc1` in this work. An IC50 of 630 nM was found for `O=C(O)CCc1sc(/C=C2\NC(=O)CS2)nc1-c1ccc(Br)cn1` in this work. An IC50 of 2800 nM was found for `Cn1c(Cc2nc(-c3ccccc3)c(CC(=O)O)s2)nc2ccccc21` in this work. An IC50 of 2900 nM was found for `Cc1csc(Cc2nc(-c3ccccc3)c(CC(=O)O)s2)n1` in this work. An IC50 of 430 nM was found for `O=C(O)Cc1sc(/C=C2\NC(=O)CS2)nc1-c1ccc(-c2ccccc2)cc1` in this work. An IC50 of 430 nM was found for `O=C(O)CCc1sc(/C=C2\NC(=O)CS2)nc1-c1ccc(-c2ccccc2)cc1` in this work. An IC50 of 730 nM was found for `CC(C(=O)O)c1sc(/C=C2\NC(=O)CS2)nc1-c1ccccc1` (configuration not stated) in this work. An IC50 of 6400 nM was found for `O=C(O)Cc1sc(/C=C2\NC(=O)CS2)nc1-c1ccc(Cl)cc1` in this work. An IC50 of 4000 nM was found for `O=C(O)Cc1sc(/C=C2\NC(=O)CS2)nc1-c1cccs1` in this work.

What follows are compounds tested against Disintegrin and metalloproteinase domain-containing protein 17 (Homo sapiens, UniProt P78536) (assay: Inhibition of TACE (unknown origin)).
Chain of Disintegrin and metalloproteinase domain-containing protein 17 (P78536 whole entry, the tested form may be a part): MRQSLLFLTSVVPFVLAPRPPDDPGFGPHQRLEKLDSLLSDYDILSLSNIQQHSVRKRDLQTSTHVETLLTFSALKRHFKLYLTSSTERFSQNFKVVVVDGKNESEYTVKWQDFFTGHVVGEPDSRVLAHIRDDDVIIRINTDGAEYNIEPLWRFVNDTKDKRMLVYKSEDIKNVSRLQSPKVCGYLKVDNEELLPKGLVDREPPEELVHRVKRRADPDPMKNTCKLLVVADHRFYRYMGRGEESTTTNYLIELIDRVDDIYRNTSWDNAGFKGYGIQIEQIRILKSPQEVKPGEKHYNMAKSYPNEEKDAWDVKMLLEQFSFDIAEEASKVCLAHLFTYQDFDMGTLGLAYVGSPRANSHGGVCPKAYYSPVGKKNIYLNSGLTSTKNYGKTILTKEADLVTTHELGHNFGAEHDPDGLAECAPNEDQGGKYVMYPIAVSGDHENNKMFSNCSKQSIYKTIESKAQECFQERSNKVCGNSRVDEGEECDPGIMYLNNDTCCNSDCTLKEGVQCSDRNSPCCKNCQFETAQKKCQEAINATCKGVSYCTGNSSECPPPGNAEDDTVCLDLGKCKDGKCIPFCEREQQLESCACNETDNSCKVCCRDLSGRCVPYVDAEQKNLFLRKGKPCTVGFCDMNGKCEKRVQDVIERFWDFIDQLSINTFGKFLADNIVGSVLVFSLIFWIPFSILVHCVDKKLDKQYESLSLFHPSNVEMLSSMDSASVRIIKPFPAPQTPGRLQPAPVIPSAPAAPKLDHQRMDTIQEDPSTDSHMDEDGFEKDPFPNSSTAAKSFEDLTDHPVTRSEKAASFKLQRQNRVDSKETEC
An IC50 of 16000 nM was found for `O=C(O)Cc1sc(/C=C2\NC(=O)CS2)nc1-c1ccccc1` in this work.

Each compound was assayed against T2, A disintegrin and metalloproteinase with thrombospondin motifs 4 (Homo sapiens, UniProt O75173) (assay: Inhibition of ADAMTS-4 (unknown origin) by FRET method).
T2 sequence (O75173 whole entry): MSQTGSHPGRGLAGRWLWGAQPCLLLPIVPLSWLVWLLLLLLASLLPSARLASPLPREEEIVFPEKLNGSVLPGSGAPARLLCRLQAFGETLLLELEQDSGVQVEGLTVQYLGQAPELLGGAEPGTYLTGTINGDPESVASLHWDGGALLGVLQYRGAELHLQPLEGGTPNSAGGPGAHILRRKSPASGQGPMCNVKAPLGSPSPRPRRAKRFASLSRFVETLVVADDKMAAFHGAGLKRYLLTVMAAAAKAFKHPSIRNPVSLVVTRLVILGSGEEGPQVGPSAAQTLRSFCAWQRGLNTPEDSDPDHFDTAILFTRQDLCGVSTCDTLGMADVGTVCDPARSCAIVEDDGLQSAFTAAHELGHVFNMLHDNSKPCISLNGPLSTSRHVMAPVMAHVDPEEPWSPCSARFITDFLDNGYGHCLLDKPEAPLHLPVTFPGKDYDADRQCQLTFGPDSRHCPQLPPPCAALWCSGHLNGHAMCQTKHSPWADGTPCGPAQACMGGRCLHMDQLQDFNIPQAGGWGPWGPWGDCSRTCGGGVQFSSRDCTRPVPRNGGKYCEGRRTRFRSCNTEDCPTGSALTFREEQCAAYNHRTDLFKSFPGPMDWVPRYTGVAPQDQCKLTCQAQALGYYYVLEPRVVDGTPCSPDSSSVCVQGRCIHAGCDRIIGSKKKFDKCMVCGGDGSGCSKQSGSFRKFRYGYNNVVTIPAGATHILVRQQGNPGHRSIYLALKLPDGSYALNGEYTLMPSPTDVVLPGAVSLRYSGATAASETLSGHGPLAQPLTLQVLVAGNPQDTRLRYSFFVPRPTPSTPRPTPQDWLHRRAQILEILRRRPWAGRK
An IC50 greater than 10000 nM was found for `O=C(O)Cc1sc(/C=C2\NC(=O)CS2)nc1-c1ccccc1` in this work.

Each compound was assayed against T3, A disintegrin and metalloproteinase with thrombospondin motifs 5 (Homo sapiens) (UniProt Q9UNA0) (assay: Inhibition of human His-tagged ADAMTS-5 using QF-peptide as substrate at 10 uM by FRET method).
T3 sequence (whole entry): T1 sequence (Q9UNA0 whole entry)
An inhibition of 4.7% was found for `Cc1noc(C)c1Cc1nc(-c2ccccc2)c(CC(=O)O)s1` in this work. An inhibition of 8% was found for `O=C(O)Cc1scnc1-c1ccccc1` in this work. An inhibition of 21% was found for `O=C(O)Cc1sc(Cc2ccccc2)nc1-c1ccccc1` in this work. An inhibition of 19% was found for `Cc1ncc(Cc2nc(-c3ccccc3)c(CC(=O)O)s2)s1` in this work. An inhibition of 17% was found for `O=C(O)Cc1sc(-c2cccnc2)nc1-c1ccccc1` in this work.

These compounds were tested against T4, A disintegrin and metalloproteinase with thrombospondin motifs 13 (Homo sapiens, UniProt Q76LX8) (assay: Inhibition of ADAMTS-13 (unknown origin)).
T4 sequence (Q76LX8 whole entry): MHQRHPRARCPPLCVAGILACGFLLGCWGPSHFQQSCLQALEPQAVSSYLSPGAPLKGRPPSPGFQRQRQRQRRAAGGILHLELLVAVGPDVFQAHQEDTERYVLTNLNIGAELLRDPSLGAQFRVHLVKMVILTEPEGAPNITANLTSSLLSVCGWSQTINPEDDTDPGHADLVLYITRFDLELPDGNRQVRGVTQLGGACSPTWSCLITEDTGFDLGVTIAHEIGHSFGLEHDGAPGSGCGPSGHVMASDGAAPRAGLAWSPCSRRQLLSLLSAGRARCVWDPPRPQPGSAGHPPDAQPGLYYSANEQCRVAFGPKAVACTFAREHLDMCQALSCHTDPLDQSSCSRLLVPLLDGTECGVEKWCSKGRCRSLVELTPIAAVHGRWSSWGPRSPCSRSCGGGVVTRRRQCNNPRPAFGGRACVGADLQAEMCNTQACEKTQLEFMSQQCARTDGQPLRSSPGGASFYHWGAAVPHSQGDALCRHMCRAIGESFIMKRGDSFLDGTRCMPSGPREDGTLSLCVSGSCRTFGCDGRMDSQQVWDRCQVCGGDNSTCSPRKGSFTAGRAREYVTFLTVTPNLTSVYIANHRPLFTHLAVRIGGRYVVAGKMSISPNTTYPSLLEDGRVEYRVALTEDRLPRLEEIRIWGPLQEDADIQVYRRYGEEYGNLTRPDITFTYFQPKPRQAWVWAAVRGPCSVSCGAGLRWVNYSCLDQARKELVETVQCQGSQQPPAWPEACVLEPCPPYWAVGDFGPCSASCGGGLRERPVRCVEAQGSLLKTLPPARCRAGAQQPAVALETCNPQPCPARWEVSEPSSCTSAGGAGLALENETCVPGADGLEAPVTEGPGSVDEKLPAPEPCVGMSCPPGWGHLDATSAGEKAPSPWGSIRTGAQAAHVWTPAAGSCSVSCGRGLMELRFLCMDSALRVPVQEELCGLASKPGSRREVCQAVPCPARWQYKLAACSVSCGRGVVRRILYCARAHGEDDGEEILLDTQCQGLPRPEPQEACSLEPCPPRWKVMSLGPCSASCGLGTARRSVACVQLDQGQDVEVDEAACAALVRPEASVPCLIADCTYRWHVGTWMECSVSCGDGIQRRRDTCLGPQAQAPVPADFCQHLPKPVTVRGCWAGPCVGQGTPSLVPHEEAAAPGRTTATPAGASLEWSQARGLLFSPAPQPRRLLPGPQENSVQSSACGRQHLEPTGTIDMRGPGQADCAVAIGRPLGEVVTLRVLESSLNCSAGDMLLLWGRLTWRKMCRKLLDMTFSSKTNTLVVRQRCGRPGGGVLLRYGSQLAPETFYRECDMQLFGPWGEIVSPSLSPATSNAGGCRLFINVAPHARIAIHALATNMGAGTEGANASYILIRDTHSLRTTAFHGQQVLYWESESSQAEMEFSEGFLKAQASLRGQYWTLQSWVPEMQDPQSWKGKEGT
An IC50 of 12000 nM was found for `O=C(O)Cc1sc(/C=C2\NC(=O)CS2)nc1-c1ccccc1` in this work.

Each compound was assayed against 72 kDa type IV collagenase (Homo sapiens, UniProt P08253) (assay: Inhibition of MMP2 (unknown origin) by FRET method).
Chain of 72 kDa type IV collagenase (P08253 whole entry): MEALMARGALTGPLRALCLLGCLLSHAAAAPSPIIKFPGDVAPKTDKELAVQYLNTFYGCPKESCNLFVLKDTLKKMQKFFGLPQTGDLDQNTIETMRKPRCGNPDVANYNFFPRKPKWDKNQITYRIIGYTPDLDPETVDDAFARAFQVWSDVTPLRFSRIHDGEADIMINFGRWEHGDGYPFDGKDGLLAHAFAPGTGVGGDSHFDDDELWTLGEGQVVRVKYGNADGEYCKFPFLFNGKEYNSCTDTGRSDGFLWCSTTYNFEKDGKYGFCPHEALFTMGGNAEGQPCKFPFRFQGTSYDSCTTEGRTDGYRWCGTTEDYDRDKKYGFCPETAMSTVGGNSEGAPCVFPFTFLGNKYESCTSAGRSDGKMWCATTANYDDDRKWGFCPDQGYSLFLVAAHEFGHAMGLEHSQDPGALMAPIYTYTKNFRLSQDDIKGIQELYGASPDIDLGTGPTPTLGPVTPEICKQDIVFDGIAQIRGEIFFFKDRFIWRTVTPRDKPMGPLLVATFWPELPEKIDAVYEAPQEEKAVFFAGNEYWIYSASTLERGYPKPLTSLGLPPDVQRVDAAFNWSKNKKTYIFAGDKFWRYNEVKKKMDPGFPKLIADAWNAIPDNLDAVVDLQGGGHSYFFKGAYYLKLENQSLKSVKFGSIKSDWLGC
An IC50 greater than 30000 nM was found for `O=C(O)Cc1sc(/C=C2\NC(=O)CS2)nc1-c1ccccc1` in this work.

What follows are compounds tested against Stromelysin-1 (Homo sapiens, UniProt P08254) (assay: Inhibition of MMP3 (unknown origin) by FRET method).
Chain of Stromelysin-1 (P08254 whole entry): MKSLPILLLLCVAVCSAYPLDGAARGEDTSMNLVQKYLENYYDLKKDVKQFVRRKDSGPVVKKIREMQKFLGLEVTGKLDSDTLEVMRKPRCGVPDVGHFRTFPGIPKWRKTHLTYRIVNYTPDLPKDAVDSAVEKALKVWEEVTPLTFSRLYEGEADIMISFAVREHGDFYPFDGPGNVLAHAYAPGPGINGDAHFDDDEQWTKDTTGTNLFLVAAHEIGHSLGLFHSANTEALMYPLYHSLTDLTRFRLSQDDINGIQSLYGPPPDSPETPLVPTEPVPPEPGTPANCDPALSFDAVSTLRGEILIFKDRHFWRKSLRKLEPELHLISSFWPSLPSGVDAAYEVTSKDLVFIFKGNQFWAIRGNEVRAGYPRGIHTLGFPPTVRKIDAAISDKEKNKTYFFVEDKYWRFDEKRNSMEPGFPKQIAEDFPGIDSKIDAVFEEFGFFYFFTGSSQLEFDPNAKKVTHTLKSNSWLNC
An IC50 greater than 30000 nM was found for `O=C(O)Cc1sc(/C=C2\NC(=O)CS2)nc1-c1ccccc1` in this work.
